# Test results: US20180311247A1, “COMBINATION THERAPIES FOR TREATING CANCERS” (GILEAD SCIENCES, INC., priority 2015, published 2018)
# Where two headings read alike, the source gives them in different places.
# Experiments:
# [1] = tested on: human activated B cell (ABC) subtype DLBCL cell line, TMD8; assay: TMD8 cell viability (CellTiter Glo) growth inhibition assay; format: cell-based; conditions: TMD8 cells; for cell growth inhibition over the dose range: four days, Compound D 0-90 nM, Compound A1 0-22 nM; for IC50: Homo sapiens, TMD8, 96 h, 96 hours, read-out: average IC50 (concentration that causes half maximal inhibition of cell growth)
# Description: Material and Methods: The effect of the combination of a BET inhibitor, (2-cyclopropyl-6-(3,5-dimethylisoxazol-4-yl)-1H-benzo[d]imidazol-4-yl)di(pyridin-2-yl)methanol (Compound D), and BTK inhibitor (Compound A1) on growth inhibition of the human activated B cell (ABC) subtype DLBCL cell line, TMD8, was evaluated in vitro. TMD8 cells were dosed with a matrix of Compound D (0-90 nM) and compound A1 (0-22 nM) and treated for four days, after which cell viability was measured by a CellTiter Glo assay. A representative heatmap of this dose matrix for cell growth inhibition is shown in FIG. 2 (0% to 100% growth inhibition). […] Synergy was defined as the excess over the predicted additive interaction between the compounds using Bliss analysis.
# Cells were plated at a density of 4,000 cells per well in 384-well (Grenier 781086) tissue culture black well plates already spotted with compounds by a Labcyte Echo liquid handler. […] The predicted response under Bliss additivity for any combination of drugs at a given concentration pair was determined by Ra+Rb−Ra*Rb, where Ra and Rb are the responses of Compounds D and A1 (i.e., cell growth inhibition). The total Bliss score was determined by summing the differences between the observed values and the predicted additive value at each pair of concentrations assayed. Only values where the difference is greater than the 95% confidence interval of the measurements are included in the sum.
# [2] = tested on: type II collagen arthritis in female Lewis rats; assay: rat collagen-induced arthritis model (established type II collagen arthritis); format: in vivo; conditions: for summed ankle histopathology (mean ± standard error), maximum value of 25: day 34
# Description: This study evaluated the potential effects of BTK inhibitor in combination with JAK inhibitor in treating arthritis. Lewis rats were injected intradermally/subcutaneously (ID/SC) with porcine type II collagen to induce arthritis. Arthritic rats were treated with vehicle (20% Cremophor EL/10% EtOH/70% saline), Compound A1 (a BTK inhibitor), Compound B4 (a JAK inhibitor), Compound A1 and Compound B4, or Dex (dexamethasone). Compound A1 was administered orally either twice daily at 3, 10, or 20 mg/kg or once daily at 20 mg/kg; Compound B4 was administered orally daily at 2.5 mg/kg; dex was administered daily at 0.075 mg/kg, initiated on day 17. The study was terminated at day 34. Efficacy evaluation was based on body weights, daily ankle caliper measurements, ankle diameter expressed as area under the curve (AUC), terminal hind paw weights, and histopathologic evaluation of right ankles.
# This model may reflect certain clinical and histopathologic parameters, such as inflammation, cartilage destruction, and bone resorption that occur in established type II collagen arthritis in female Lewis rats.
# Ankle diameters were measured and compared for potential treatment effects. FIG. 1 depicts the measurements taken on Day 9, 13-34 for ankle diameter (in.) (mean±standard error) for the following groups: control (normal and disease), Compound A1 (20 mg/kg, daily), Compound A1 (3 mg/kg, twice daily), Compound B4 (2.5 mg/kg, twice daily), Compound A1 (20 mg/kg, daily) with Compound B4 (2.5 mg/kg, twice daily), Compound A1 (3 mg/kg, twice daily) with Compound B4 (2.5 mg/kg, twice daily) and Dex (0.075 mg/kg daily). In addition, the AUC total sum (day 17-34) (mean f standard error) was measured.
# The following score systems were used to evaluate ankle inflammation, ankle pannus, ankle cartilage damage, ankle bone resorption, and periosteal new bone formation, which may represent treatment effects to ankle histology. The sum of the summed ankle histology scores for day 34, are provided herein.
# Ankle inflammation scores as used herein have the following meaning: 0=normal; 0.5=minimal focus inflammation; 1=minimal infiltration of inflammatory cells in synovium/periarticular tissue; 2=mild infiltration; 3-moderate infiltration with moderate edema; 4=marked infiltration with marked edema; 5=severe infiltration with severe edema. Ankle pannus scores as used herein have the following meaning: 0=normal; 0.5=minimal infiltration of pannus in cartilage and subchondral bone, affects only marginal zones and affects only a few joints; 1=minimal infiltration of pannus in cartilage and subchondral bone, primarily affects marginal zones; 2=mild infiltration (<25% of tibia or tarsals at marginal zones); 3=moderate infiltration (26%-50% of tibia or small tarsals affected at marginal zones); 4=marked infiltration (51%-75% of tibia or tarsals affected at marginal zones); 5=severe infiltration (>75% of tibia or tarsals affected at marginal zones, severe distortion of overall architecture).
# [3] = Compound A1 3 mg/kg, twice daily, orally
# [4] = Compound A1 10 mg/kg, twice daily, orally
# [5] = Compound A1 20 mg/kg, daily, orally
# [6] = Compound A1 20 mg/kg, twice daily, orally
# [7] = Compound B4 2.5 mg/kg, twice daily, orally
structure (smiles),measurement,setting,value
"CC#CC(=O)N1CC[C@@H](n2c(=O)n(-c3ccc(Oc4ccccc4)cc3)c3c(N)ncnc32)C1 [Compound A1, (R)-6-amino-9-(1-(but-2-ynoyl)pyrrolidin-3-yl)-7-(4-phenoxyphenyl)-7H-purin-8(9H)-one]",cell growth inhibition over the dose range,[1],reduced cell growth
same,ED-1 immunopositive osteoclast count (mean ± standard error),[2]; [3],7±1.3
same,ankle diameter AUC total sum (day 17-34) (mean ± standard error),[2]; [3],5.9±0.079
same,percent inhibition of the AUC total sum (day 17-34),[2]; [3],13%
same,percent inhibition of the ED-1 immunopositive osteoclast count,[2]; [3],65%
same,percent inhibition of the summed ankle histopathology,[2]; [3],10%
same,ED-1 immunopositive osteoclast count (mean ± standard error),[2]; [4],8±1.9
same,ankle diameter AUC total sum (day 17-34) (mean ± standard error),[2]; [4],5.9±0.102
same,percent inhibition of the AUC total sum (day 17-34),[2]; [4],9%
same,percent inhibition of the ED-1 immunopositive osteoclast count,[2]; [4],62%
same,percent inhibition of the summed ankle histopathology,[2]; [4],16%
same,ED-1 immunopositive osteoclast count (mean ± standard error),[2]; [5],9±1.5
same,ankle diameter AUC total sum (day 17-34) (mean ± standard error),[2]; [5],5.9±0.096
same,percent inhibition of the AUC total sum (day 17-34),[2]; [5],13%
same,percent inhibition of the ED-1 immunopositive osteoclast count,[2]; [5],56%
same,percent inhibition of the summed ankle histopathology,[2]; [5],15%
same,ED-1 immunopositive osteoclast count (mean ± standard error),[2]; [6],4±0.7
same,ankle diameter AUC total sum (day 17-34) (mean ± standard error),[2]; [6],5.8±0.124
same,percent inhibition of the AUC total sum (day 17-34),[2]; [6],15%
same,percent inhibition of the ED-1 immunopositive osteoclast count,[2]; [6],83%
same,percent inhibition of the summed ankle histopathology,[2]; [6],18%
same,"summed ankle histopathology (mean ± standard error), maximum value of 25",[2]; [3],23±0.6
same,"summed ankle histopathology (mean ± standard error), maximum value of 25",[2]; [4],21±1.4
same,"summed ankle histopathology (mean ± standard error), maximum value of 25",[2]; [5],21±0.7
same,"summed ankle histopathology (mean ± standard error), maximum value of 25",[2]; [6],21±0.6
"C[C@@H]1CCN(C(=O)CC#N)C[C@@H]1N(C)c1ncnc2[nH]ccc12 [Compound B4, 3-((3R,4R)-4-methyl-3-(methyl(7H-pyrrolo[2,3-d]pyrimidin-4-yl)amino)piperidin-1-yl)-3-oxopropanenitrile, reference compound]",ED-1 immunopositive osteoclast count (mean ± standard error),[2]; [7],16±1.7
same,ankle diameter AUC total sum (day 17-34) (mean ± standard error),[2]; [7],5.6±0.083
same,percent inhibition of the AUC total sum (day 17-34),[2]; [7],28%
same,percent inhibition of the ED-1 immunopositive osteoclast count,[2]; [7],14%
same,percent inhibition of the summed ankle histopathology,[2]; [7],23%
same,"summed ankle histopathology (mean ± standard error), maximum value of 25",[2]; [7],19±1.4
"Cc1noc(C)c1-c1cc(C(O)(c2ccccn2)c2ccccn2)c2nc(C3CC3)[nH]c2c1 [Compound D, (2-cyclopropyl-6-(3,5-dimethylisoxazol-4-yl)-1H-benzo[d]imidazol-4-yl)di(pyridin-2-yl)methanol]",IC50,[1]; Compound D alone,25 nM
same,IC50,[1]; in the presence of 5.5 nM of Compound A1,11 nM
same,IC50,[1]; in the presence of 11 nM of Compound A1,8 nM
same,cell growth inhibition over the dose range,[1],reduced cell growth
"C[C@@H]1C[C@H]2[C@@H]3CCC4=CC(=O)C=C[C@]4(C)[C@@]3(F)[C@@H](O)C[C@]2(C)[C@@]1(O)C(=O)CO [Dex, dexamethasone, reference compound]",ED-1 immunopositive osteoclast count (mean ± standard error),[2]; Dex 0.075 mg/kg,4±1.4
same,percent inhibition of the AUC total sum (day 17-34),[2]; Dex 0.075 mg/kg,56%
same,percent inhibition of the ED-1 immunopositive osteoclast count,[2]; Dex 0.075 mg/kg,85%
same,percent inhibition of the summed ankle histopathology,[2]; Dex 0.075 mg/kg,51%
same,ankle diameter AUC total sum (day 17-34) (mean ± standard error),[2]; Dex 0.075 mg/kg daily,5.2±0.069
same,"summed ankle histopathology (mean ± standard error), maximum value of 25",[2]; Dex 0.075 mg/kg daily,12±1.0
